This assay concerns 13762 breast carcinoma xenografts. The assay is described as follows: Paclitaxel treatment of tumor xenografts (PTCH immunohistochemistry, tumor volume). The assay is classed as in vivo, rat. Particulars: rats, 20 mg/kg paclitaxel. The method, then:
All animal work was carried out in the Small Animal Imaging Facility (SAIF) at the University of Texas M.D. Anderson Cancer Center under an approved Institutional Animal Care and Use Committee (IACUC) protocol. Female Fischer 344 rats (150 ± 25 g, n = 6) (Harlan Sprague-Dawley, Indianapolis, IN) were inoculated subcutaneously with 0.1 mL of a 13762 breast carcinoma cell suspension (10^5 cells/rat of a breast tumor cell line specific to Fischer rats) into the hind legs using 25-gauge needles. Studies were performed 12–14 days after inoculation when tumors reached approximately 1 cm in diameter. For treatment studies, rats were injected with 20 mg/kg paclitaxel and reimaged 7 days later. After the posttreatment scan, tumors were removed and formalin sections were made. Control tumors were taken from untreated […] 13 days after inoculation. Sections were stained with an anti-patched antibody (Santa Cruz) using a peroxide-based immunohistochemical detection kit (Dako) according to the manufacturer's instructions.

The source of these data is paper PMC4172929, “Patched Targeting Peptides for Imaging and Treatment of Hedgehog Positive Breast Tumors” (BioMed Research International, 2014).

As to `CC(=O)O[C@H]1C(=O)[C@@]2(C)[C@H]([C@H](OC(=O)c3ccccc3)[C@]3(O)C[C@H](OC(=O)[C@H](O)[C@@H](NC(=O)c4ccccc4)c4ccccc4)C(C)=C1C3(C)C)[C@]1(OC(C)=O)CO[C@@H]1C[C@@H]2O` [paclitaxel], the “tumor volume after treatment” value was “decrease”. Besides, where the note is “seven days after treatment, immunohistochemistry”, the “PTCH protein expression in the residual tumor” value was “increase”.
